For three molecules, mass density and Normal melting temperature results are on record in the NIST ThermoML archive (doi:10.1016/j.tca.2019.178319).

The conditions of this data set: Crystal; for mass density: 298 K, 101.33 kPa, X-ray diffraction; for Normal melting temperature: DTA.

Numbers after ± are expanded uncertainties.

With `[I][Bi]([I])[I]` [bismuth triiodide], the mass density (commonly the mass of a sample divided by its volume) was determined as 5770 ± 20 kg/m3 and the Normal melting temperature came to 407 ± 4 °C.
Turning to `[Bi+3].[Bi+3].[Se-2].[Se-2].[Se-2]` [bismuth(III) selenide], the mass density worked out at 7660 ± 30 kg/m3 and the Normal melting temperature was found to be 707 ± 6 °C.
Turning to `[Bi+3].[Bi+3].[S-2].[S-2].[S-2]` [bismuth(III) sulfide], the mass density is listed as 6800 ± 20 kg/m3 and the Normal melting temperature was found to be 777 ± 6 °C.
